Data from US11492335B2, “Aryl or heteroaryl triazolone derivatives or salts thereof, or pharmaceutical compositions comprising the same” (YUHAN CORPORATION, priority 2018, dated 2022).
Structures can show the parent of a compound that is named as a salt. Where two headings read alike, the source gives them in different places.

How the values were obtained:
Assay type in all cases: biochemical
[1] = biological target: T1, recombinant human VAP-1 (Homo sapiens, UniProt Q16853); test: Activity on recombinant human VAP-1, Amplex Red HRP-coupled hydrogen peroxide assay, benzylamine substrate; conditions: recombinant human VAP-1, benzylamine substrate, read-out: Inhibitory Activity (IC50, nM) human VAP-1
T1 construct: purchased R&D systems
T1 sequence (Q16853 1-763): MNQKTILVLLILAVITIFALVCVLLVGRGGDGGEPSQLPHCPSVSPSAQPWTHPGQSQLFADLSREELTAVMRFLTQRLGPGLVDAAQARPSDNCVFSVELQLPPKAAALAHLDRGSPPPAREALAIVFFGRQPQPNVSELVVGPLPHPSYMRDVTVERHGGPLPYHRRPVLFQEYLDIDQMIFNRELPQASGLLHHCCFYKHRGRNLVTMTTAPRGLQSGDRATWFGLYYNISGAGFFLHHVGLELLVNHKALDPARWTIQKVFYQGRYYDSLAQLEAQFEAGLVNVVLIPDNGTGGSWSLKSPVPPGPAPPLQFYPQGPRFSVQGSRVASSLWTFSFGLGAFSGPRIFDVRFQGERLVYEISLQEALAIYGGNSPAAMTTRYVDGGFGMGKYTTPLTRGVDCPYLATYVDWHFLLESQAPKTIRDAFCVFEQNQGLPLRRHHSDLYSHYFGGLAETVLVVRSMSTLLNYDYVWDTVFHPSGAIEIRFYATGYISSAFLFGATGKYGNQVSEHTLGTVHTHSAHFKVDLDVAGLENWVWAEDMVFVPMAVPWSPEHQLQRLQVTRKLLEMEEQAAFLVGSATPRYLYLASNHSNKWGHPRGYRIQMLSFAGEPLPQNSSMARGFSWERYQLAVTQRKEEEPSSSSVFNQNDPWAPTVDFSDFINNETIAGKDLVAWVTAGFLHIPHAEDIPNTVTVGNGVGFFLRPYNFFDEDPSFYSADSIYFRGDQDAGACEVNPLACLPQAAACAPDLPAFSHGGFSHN
Outline: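 Fluorescence of resorufin formed from H2O2 (ex 544 nm, em 590 nm) was tracked for 1-2 h after adding 1 mM benzylamine, 200 uM Amplex Red and 1 U/mL HRP to enzyme pretreated with compound for 30 min at 37 °C. IC50 values derive from four-variable logistic fits.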

[2] = biological target: T2, recombinant human MAO-A (monoamine oxidase-A) (Homo sapiens, UniProt P21397); test: Activity on recombinant human MAO-A, Amplex Red method, 0.5 mM tyramine substrate; conditions: read-out: Inhibitory Activity (IC50, nM) MAO-A
T2 construct: purchased Sigma-Aldrich
T2 sequence (P21397 1-527): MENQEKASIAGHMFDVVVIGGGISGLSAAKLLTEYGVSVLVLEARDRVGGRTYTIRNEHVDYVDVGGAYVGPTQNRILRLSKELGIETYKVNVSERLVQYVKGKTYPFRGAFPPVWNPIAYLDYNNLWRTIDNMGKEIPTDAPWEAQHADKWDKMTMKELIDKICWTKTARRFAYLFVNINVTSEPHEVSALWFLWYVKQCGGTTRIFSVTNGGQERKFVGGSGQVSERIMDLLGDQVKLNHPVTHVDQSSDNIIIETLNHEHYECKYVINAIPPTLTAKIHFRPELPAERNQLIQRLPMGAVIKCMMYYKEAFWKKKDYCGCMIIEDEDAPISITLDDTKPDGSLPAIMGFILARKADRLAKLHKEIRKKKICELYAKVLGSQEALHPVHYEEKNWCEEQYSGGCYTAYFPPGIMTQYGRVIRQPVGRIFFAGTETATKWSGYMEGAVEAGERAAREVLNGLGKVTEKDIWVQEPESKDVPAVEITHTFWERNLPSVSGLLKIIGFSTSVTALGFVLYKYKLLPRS
Outline: (§1)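 Fluorescence (544/590 nm) of resorufin formed from Amplex Red by HRP and enzyme-generated H2O2 was followed over 1-2 h. Substrates were 0.5 mM tyramine for MAO-A and 1 mM benzylamine for MAO-B; compounds were preincubated with enzyme for 30 min at 37° C. IC50 came from four-parameter logistic fitting of signal-rate inhibition.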

[3] = biological target: T3, recombinant human DAO (diamine oxidase) (Homo sapiens, UniProt P19801); test: Activity on recombinant human DAO, Amplex Red method, 1 mM putrescine substrate; conditions: recombinant human DAO; for IC50: read-out: Inhibitory Activity (IC50, nM) DAO
T3 construct: purchased R&D systems
T3 sequence (P19801 20-751): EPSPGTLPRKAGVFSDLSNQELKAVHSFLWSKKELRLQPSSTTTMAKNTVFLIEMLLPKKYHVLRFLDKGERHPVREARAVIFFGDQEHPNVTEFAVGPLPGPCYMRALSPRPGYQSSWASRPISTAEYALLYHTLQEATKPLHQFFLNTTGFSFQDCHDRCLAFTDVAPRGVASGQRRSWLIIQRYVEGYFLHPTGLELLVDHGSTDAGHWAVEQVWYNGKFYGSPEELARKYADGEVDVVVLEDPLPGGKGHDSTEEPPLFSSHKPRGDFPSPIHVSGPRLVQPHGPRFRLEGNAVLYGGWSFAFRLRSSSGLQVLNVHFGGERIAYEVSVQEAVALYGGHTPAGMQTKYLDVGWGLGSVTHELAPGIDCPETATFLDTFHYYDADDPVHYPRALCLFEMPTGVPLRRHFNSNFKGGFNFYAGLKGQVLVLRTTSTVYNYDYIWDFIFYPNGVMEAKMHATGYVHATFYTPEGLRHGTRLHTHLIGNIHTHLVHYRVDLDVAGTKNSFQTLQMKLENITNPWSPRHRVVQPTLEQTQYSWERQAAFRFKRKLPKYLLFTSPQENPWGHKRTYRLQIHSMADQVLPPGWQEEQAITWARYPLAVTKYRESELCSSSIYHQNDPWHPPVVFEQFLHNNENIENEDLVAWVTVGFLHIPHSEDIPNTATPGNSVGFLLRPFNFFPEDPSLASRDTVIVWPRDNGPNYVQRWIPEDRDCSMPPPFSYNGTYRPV
Outline: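 Inhibition of recombinant human DAO (diamine oxidase, R&D systems) was assessed with the Amplex Red Hydrogen Peroxide Assay Kit. Hydrogen peroxide produced from 1 mM putrescine was detected through an HRP-coupled reaction that converts Amplex Red into fluorescent resorufin, read at 544 nm excitation and 590 nm emission. IC50 values came from four-parameter logistic fits in GraphPad Prism.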

[4] = biological target: T4, recombinant human MAO-B (monoamine oxidase-B) (Homo sapiens, UniProt P27338); test: Activity on recombinant human MAO-B, Amplex Red method, 1 mM benzylamine substrate; conditions: read-out: Inhibitory Activity (IC50, nM) MAO-B
T4 construct: purchased Sigma-Aldrich
T4 sequence (P27338 1-520): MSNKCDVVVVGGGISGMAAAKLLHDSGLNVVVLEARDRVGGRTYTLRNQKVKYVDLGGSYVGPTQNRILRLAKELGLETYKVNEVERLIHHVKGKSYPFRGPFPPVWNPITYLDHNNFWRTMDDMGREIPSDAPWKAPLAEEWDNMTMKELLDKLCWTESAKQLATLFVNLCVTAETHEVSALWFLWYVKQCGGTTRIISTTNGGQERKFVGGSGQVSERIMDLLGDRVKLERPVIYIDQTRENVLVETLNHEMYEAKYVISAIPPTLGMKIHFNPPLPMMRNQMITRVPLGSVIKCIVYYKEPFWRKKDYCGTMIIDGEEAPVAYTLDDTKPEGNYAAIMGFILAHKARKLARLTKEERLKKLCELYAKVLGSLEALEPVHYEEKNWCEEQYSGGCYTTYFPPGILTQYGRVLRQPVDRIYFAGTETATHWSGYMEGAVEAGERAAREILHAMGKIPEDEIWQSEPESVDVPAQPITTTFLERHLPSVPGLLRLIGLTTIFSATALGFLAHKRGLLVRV
Outline: as §1

[5] = 1 mM putrescine, * = between 10 and 100 nM, ** = between 300 and 1000 nM

| Compound | IC50 ([1]; 30 min preincubation at 37° C.) [nM] | IC50 ([2]; 0.5 mM tyramine) [nM] | IC50 [3, 5] [nM] | IC50 ([4]; 1 mM benzylamine) [nM] | IC50 [1] [nM] | IC50 ([2]; 0.5 mM tyramine substrate) [nM] | IC50 ([3]; 1 mM putrescine substrate) [nM] | IC50 ([4]; 1 mM benzylamine substrate) [nM] | Inhibitory Activity (IC50, nM) DAO [3, 5] |
| --- | --- | --- | --- | --- | --- | --- | --- | --- | --- |
| NC/C(=C/F)Cn1ncn(-c2ccc(Br)cn2)c1=O [Example 29, 2-[(2Z)-2-(aminomethyl)-3-fluoroprop-2-en-1-yl]-4-(5-bromopyridin-2-yl)-2,4-dihydro-3H-1,2,4-triazol-3-one hydrochloride] | 1.2 | 2600 | 25 | 28 |  |  |  |  |  |
| NC/C(=C\F)Cn1ncn(-c2cccc(-c3ccc(OC(F)(F)F)cc3)c2)c1=O [Example 50, 2-[(2E)-2-(aminomethyl)-3-fluoroprop-2-en-1-yl]-4-[4′-(trifluoromethoxy)biphenyl-3-yl]-2,4-dihydro-3H-1,2,4-triazol-3-one hydrochloride] | 1 | > 10000 | < 100 | 510 |  |  |  |  |  |
| CC(=O)Nc1ccc(-c2cccc(-n3cnn(C/C(=C/F)CN)c3=O)c2C)cc1 [Example 107, N-(3′-{1-[(2E)-2-(aminomethyl)-3-fluoroprop-2-en-1-yl]-5-oxo-1,5-dihydro-4H-1,2,4-triazol-4-yl}-2′-methylbiphenyl-4-yl)acetamide] | 2.8 | > 100000 |  | > 10000 |  |  |  |  | no inhibitory |
| CC(C)n1cc(-c2cccc(-n3cnn(C/C(=C/F)CN)c3=O)c2)ccc1=O [Example 90, 5-(3-{1-[(2E)-2-(aminomethyl)-3-fluoroprop-2-en-1-yl]-5-oxo-1,5-dihydro-4H-1,2,4-triazol-4-yl}phenyl)-1-(propan-2-yl)pyridin-2(1H)-one hydrochloride] | 1.4 | > 100000 | 19 | > 10000 |  |  |  |  |  |
| CC(=O)Nc1ccc(-c2cccc(-c3cccc(-n4cnn(C/C(=C/F)CN)c4=O)c3)c2)cc1 [Example 69, N-(3″-{1-[(2E)-2-(aminomethyl)-3-fluoroprop-2-en-1-yl]-5-oxo-1,5-dihydro-4H-1,2,4-triazol-4-yl}-1,1′:3′,1″-terphenyl-4-yl)acetamide hydrochloride] | 0.63 | 4910 | 11 | 1100 |  |  |  |  |  |
| Cc1cc(-c2ccc(S(C)(=O)=O)cc2)cnc1-n1cnn(C/C(=C/F)CN)c1=O [Example 133, 2-[(2E)-2-(aminomethyl)-3-fluoroprop-2-en-1-yl]-4-{3-methyl-5-[4-(methylsulfonyl)phenyl]pyridin-2-yl}-2,4-dihydro-3H-1,2,4-triazol-3-one hydrochloride] | 0.84 | > 100000 | 220 | > 10000 |  |  |  |  |  |

The remaining lines, values ahead:

| IC50 ([1]; 30 min preincubation at 37° C.) [nM] | IC50 ([2]; 0.5 mM tyramine) [nM] | IC50 [3, 5] [nM] | IC50 ([4]; 1 mM benzylamine) [nM] | IC50 [1] [nM] | IC50 ([2]; 0.5 mM tyramine substrate) [nM] | IC50 ([3]; 1 mM putrescine substrate) [nM] | IC50 ([4]; 1 mM benzylamine substrate) [nM] | Inhibitory Activity (IC50, nM) DAO [3, 5] | Compound |
| --- | --- | --- | --- | --- | --- | --- | --- | --- | --- |
| 0.43 | 112000 | 12 | 5340 |  |  |  |  |  | Cc1cc(-c2cccc(-c3noc(C(C)C)n3)c2)cnc1-n1cnn(C/C(=C/F)CN)c1=O [Example 143, 2-[(2E)-2-(aminomethyl)-3-fluoroprop-2-en-1-yl]-4-(3-methyl-5-{3-[5-(propan-2-yl)-1,2,4-oxadiazol-3-yl]phenyl}pyridin-2-yl)-2,4-dihydro-3H-1,2,4-triazol-3-one hydrochloride] |
|  |  |  |  | 0.2 | > 100000 | 20 | 6100 |  | NC/C(=C\F)Cn1ncn(-c2cccc(C#Cc3cnc4c(c3)OCC(=O)N4)n2)c1=O [Example 255, 7-[2-[6-[1-[(E)-2-(aminomethyl)-3-fluoro-allyl]-5-oxo-1,2,4-triazol-4-yl]-2-pyridyl]ethynyl]-4H-pyrido[3,2-b][1,4]oxazin-3-one] |
|  |  |  |  | 52 | > 100000 | 4400 | > 10000 |  | Cc1ccc(-c2cccc(-c3noc(C4CC4)n3)c2)nc1-n1cnn(C/C(=C/F)CN)c1=O [Example 210, 2-[(2E)-2-(aminomethyl)-3-fluoroprop-2-en-1-yl]-4-{6-[3-(5-cyclopropyl-1,2,4-oxadiazol-3-yl)phenyl]-3-methylpyridin-2-yl}-2,4-dihydro-3H-1,2,4-triazol-3-one hydrochloride] |
|  |  |  |  | 0.83 | 7900 | < 30 | 3320 |  | NC/C(=C\F)Cn1ncn(-c2cccc(-c3ccc(-c4ccon4)cc3)n2)c1=O [Example 176, 2-[(2E)-2-(aminomethyl)-3-fluoroprop-2-en-1-yl]-4-{6-[4-(1,2-oxazol-3-yl)phenyl]pyridin-2-yl}-2,4-dihydro-3H-1,2,4-triazol-3-one] |
|  |  |  |  | 0.98 | < 100 | < 100 | 10.1 |  | NC/C(=C/F)Cn1ncn(-c2ncc(-c3ccc4nonc4c3)s2)c1=O [Example 234, 2-[(2Z)-2-(aminomethyl)-3-fluoroprop-2-en-1-yl]-4-[5-(2,1,3-benzooxadiazol-5-yl)-1,3-thiazol-2-yl]-2,4-dihydro-3H-1,2,4-triazol-3-one hydrochloride] |
